Assay results as given in patent US9365584B2, “Thieno [2,3-B] pyridinedione activators of AMPK and therapeutic uses thereof” (Poxel, priority 2009, dated 2016).

Tested on: AMPK
Experiment: AMPK enzyme activity assay (Delfia technology, AMARA peptide substrate)
Assay type: biochemical
Conditions: compound at 30 μM vs AMP at 200 μM
Protocol: The following biological test allows the determination of the efficacy of compounds of formula (1) onto AMPK protein.
AMPK enzyme activities were assayed by using a Delfia technology. AMPK enzyme activities were carried out in microtiter plates in the presence of a synthetic peptide substrate (AMARAASAAALARRR, the “AMARA” peptide) and activators in serial dilutions. Reactions were initiated by the addition of AMPK. Enzyme activity was assayed by using an anti-phosphoserine antibody to measure the quantity of phosphate incorporated into the AMARAA.
No: Number of the molecule
Activity: Ratio between the % of control (basal activity) of compound of formula (1) at 30 μM and the % of control (basal activity) of AMP (natural substrate) at 200 μM.

Compound | Activity: Ratio between the % of control (basal activity) of compound of formula (1) at 30 μM and the % of control (basal activity) of AMP (natural substrate) at 200 μM
Cc1ccccc1-c1csc2c1C(=O)C(F)(c1ccccc1)C(=O)N2 (stereo not drawn) [No 129, 5-fluoro-3-(o-tolyl)-5-phenyl-7H-thieno[2,3-b]pyridine-4,6-dione] | B (50%≦B<75%)
Cc1cccc(C2(C)C(=O)Nc3sc(Cl)c(-c4ccccc4F)c3C2=O)c1 (stereo not drawn) [No 92, 2-chloro-3-(2-fluorophenyl)-5-methyl-5-(m-tolyl)-7H-thieno[2,3-b]pyridine-4,6-dione] | A (0%<A<50%)
O=C1Nc2sc(F)c(-c3ccccc3)c2C(=O)C1(F)c1ccc(C(F)(F)F)cc1 (stereo not drawn) [No 134, 2,5-difluoro-3-phenyl-5-[4-(trifluoromethyl)phenyl]-7H-thieno[2,3-b]pyridine-4,6-dione] | A (0%<A<50%)
COc1ccccc1-c1c(Cl)sc2c1C(=O)C(C)(c1ccccc1)C(=O)N2 (stereo not drawn) [No 145, 2-chloro-3-(2-methoxyphenyl)-5-methyl-5-phenyl-7H-thieno[2,3-b]pyridine-4,6-dione] | A (0%<A<50%)
O=C1Nc2sc(Cl)c(-c3ccc(O)cc3)c2C(=O)C1(F)c1ccccc1 (stereo not drawn) [No 72, 2-chloro-5-fluoro-3-(4-hydroxyphenyl)-5-phenyl-7H-thieno[2,3-b]pyridine-4,6-dione] | C (C≧75%)
COc1cccc(C2(C)C(=O)Nc3sc(Cl)c(-c4ccccc4OC)c3C2=O)c1 (stereo not drawn) [No 68, 2-chloro-3-(2-methoxyphenyl)-5-(3-methoxyphenyl)-5-methyl-7H-thieno[2,3-b]pyridine-4,6-dione] | C (C≧75%)
O=C1Nc2scc(-c3ccccc3F)c2C(=O)C1(F)c1ccccc1 (stereo not drawn) [No 177, 5-fluoro-3-(2-fluorophenyl)-5-phenyl-7H-thieno[2,3-b]pyridine-4,6-dione] | A (0%<A<50%)
COc1ccc(C2(C)C(=O)Nc3sc(Cl)c(-c4ccccc4)c3C2=O)cc1 (stereo not drawn) [No 35, 2-chloro-5-(4-methoxyphenyl)-5-methyl-3-phenyl-7H-thieno[2,3-b]pyridine-4,6-dione] | A (0%<A<50%)
COc1cccc(-c2c(Cl)sc3c2C(=O)C(F)(c2ccccc2)C(=O)N3)c1 (stereo not drawn) [No 94, 2-chloro-5-fluoro-3-(3-methoxyphenyl)-5-phenyl-7H-thieno[2,3-b]pyridine-4,6-dione] | C (C≧75%)
COc1cc(-c2csc3c2C(=O)C(F)(c2ccccc2)C(=O)N3)ccc1C (stereo not drawn) [No 113, 5-fluoro-3-(3-methoxy-4-methyl-phenyl)-5-phenyl-7H-thieno[2,3-b]pyridine-4,6-dione] | B (50%≦B<75%)
CC1(c2cccc(S(C)(=O)=O)c2)C(=O)Nc2sc(Cl)c(-c3ccccc3F)c2C1=O (stereo not drawn) [No 139, 2-chloro-3-(2-fluorophenyl)-5-methyl-5-(3-methyl-sulfonylphenyl)-7H-thieno[2,3-b]pyridine-4,6-dione] | A (0%<A<50%)

More lines, now with the values ahead:

Activity: Ratio between the % of control (basal activity) of compound of formula (1) at 30 μM and the % of control (basal activity) of AMP (natural substrate) at 200 μM | Compound
C (C≧75%) | O=C1Nc2scc(-c3ccccc3O)c2C(=O)C1(F)c1ccccc1 (stereo not drawn) [No 147, 5-fluoro-3-(2-hydroxyphenyl)-5-phenyl-7H-thieno[2,3-b]pyridine-4,6-dione]
A (0%<A<50%) | COc1ccccc1-c1c(Cl)sc2c1C(=O)C(C)(c1ccccc1)C(=O)N2 (stereo not drawn) [No 107, 2-chloro-3-(2-methoxyphenyl)-5-methyl-5-phenyl-7H-thieno[2,3-b]pyridine-4,6-dione]
A (0%<A<50%) | COC1(c2ccccc2)C(=O)Nc2sc(Cl)c(-c3ccccc3)c2C1=O (stereo not drawn) [No 48, 2-chloro-5-methoxy-3,5-diphenyl-7H-thieno[2,3-b]pyridine-4,6-dione]
B (50%≦B<75%) | COc1ccc(-c2csc3c2C(=O)C(F)(c2ccccc2)C(=O)N3)cc1 (stereo not drawn) [No 201, 5-fluoro-3-(4-methoxyphenyl)-5-phenyl-7H-thieno[2,3-b]pyridine-4,6-dione]
A (0%<A<50%) | O=C1Nc2sc(F)c(-c3ccc(F)cc3OCc3ccccc3)c2C(=O)C1(F)c1ccccc1 (stereo not drawn) [No 175, 3-(2-benzyloxy-4-fluoro-phenyl)-2,5-difluoro-5-phenyl-7H-thieno[2,3-b]pyridine-4,6-dione]
C (C≧75%) | O=C1Nc2sc(Cl)c(-c3ccc(F)cc3O)c2C(=O)C1(F)c1cccc(F)c1 (stereo not drawn) [No 215, 2-chloro-5-fluoro-3-(4-fluoro-2-hydroxy-phenyl)-5-(3-fluorophenyl)-7H-thieno[2,3-b]pyridine-4,6-dione]
C (C≧75%) | COc1cc(-c2csc3c2C(=O)C(F)(c2ccccc2)C(=O)N3)ccc1Br (stereo not drawn) [No 159, 3-(4-bromo-3-methoxy-phenyl)-5-fluoro-5-phenyl-7H-thieno[2,3-b]pyridine-4,6-dione]
C (C≧75%) | O=C1Nc2scc(-c3c(F)cccc3F)c2C(=O)C1(F)c1ccccc1 (stereo not drawn) [No 122, 3-(2,6-difluorophenyl)-5-fluoro-5-phenyl-7H-thieno[2,3-b]pyridine-4,6-dione]
B (50%≦B<75%) | O=C1Nc2scc(-c3ccccc3Cl)c2C(=O)C1(F)c1ccccc1 (stereo not drawn) [No 138, 3-(2-chlorophenyl)-5-fluoro-5-phenyl-7H-thieno[2,3-b]pyridine-4,6-dione]
A (0%<A<50%) | O=C1Nc2scc(-c3ccc(Br)cc3)c2C(=O)C1(F)c1cccnc1 (stereo not drawn) [No 166, 3-(4-bromophenyl)-5-fluoro-5-(3-pyridyl)-7H-thieno[2,3-b]pyridine-4,6-dione]
A (0%<A<50%) | COc1cccc(-c2c(Cl)sc3c2C(=O)C(C)(c2cccc(C)c2)C(=O)N3)c1 (stereo not drawn) [No 44, 2-chloro-3-(3-methoxyphenyl)-5-methyl-5-(m-tolyl)-7H-thieno[2,3-b]pyridine-4,6-dione]
B (50%≦B<75%) | CCOc1ccc(C2(C)C(=O)Nc3sc(Cl)c(-c4ccc(C)cc4F)c3C2=O)cc1 (stereo not drawn) [No 22, 2-chloro-5-(4-ethoxyphenyl)-3-(2-fluoro-4-methyl-phenyl)-5-methyl-7H-thieno[2,3-b]pyridine-4,6-dione]

Same assay, conditions: compound at 30 μM vs AMP at 200 μM; listed as 2

Activity: Ratio between the % of control (basal activity) of compound of formula (1) at 30 μM and the % of control (basal activity) of AMP (natural substrate) at 200 μM | Compound
B (50%≦B<75%) | COC1(c2ccccc2)C(=O)Nc2sc(Cl)c(-c3ccccc3)c2C1=O (stereo not drawn) [No 48, 2-chloro-5-methoxy-3,5-diphenyl-7H-thieno[2,3-b]pyridine-4,6-dione]
